Test results from ChEMBL document CHEMBL1781926, “Synthesis of 1-naphtylpiperazine derivatives as serotoninergic ligands and their evaluation as antiproliferative agents” (Eur J Med Chem, 2011).
Active and inactive are the calls of the source. The calls are words filed in the database; no cut-off is given here.

What was measured:
PC-3 [1] = assay: Cell cycle arrest in human PC3 cells assessed as accumulation at S phase at 2 uM after 48 hrs using propidium iodide staining by flow cytometry (reference value: 38.16 %); format: functional
PC-3 [2] = assay: Induction of apoptosis in human PC3 cells at 2 uM after 48 hrs using propidium iodide staining by flow cytometry (reference value: 0.84 %); format: functional
PC-3 [3] = assay: Cell cycle arrest in human PC3 cells assessed as accumulation at G1 phase at 2 uM after 72 hrs using propidium iodide staining by flow cytometry (reference value: 42.19 %); format: functional
PC-3 [4] = assay: Inhibition of serotonin-induced MAPK phosphorylation in human PC3 cells at 2 uM after 48 hrs by Western blotting; format: cell-based
[5] = target: RAC-alpha serine/threonine-protein kinase (Homo sapiens) (UniProt P31749); assay: Inhibition of serotonin-induced AKT phosphorylation in human PC3 cells at 2 uM after 48 hrs by Western blotting; format: cell-based; settings: PC-3
RAC-alpha serine/threonine-protein kinase (Homo sapiens), sequence (P31749 whole entry): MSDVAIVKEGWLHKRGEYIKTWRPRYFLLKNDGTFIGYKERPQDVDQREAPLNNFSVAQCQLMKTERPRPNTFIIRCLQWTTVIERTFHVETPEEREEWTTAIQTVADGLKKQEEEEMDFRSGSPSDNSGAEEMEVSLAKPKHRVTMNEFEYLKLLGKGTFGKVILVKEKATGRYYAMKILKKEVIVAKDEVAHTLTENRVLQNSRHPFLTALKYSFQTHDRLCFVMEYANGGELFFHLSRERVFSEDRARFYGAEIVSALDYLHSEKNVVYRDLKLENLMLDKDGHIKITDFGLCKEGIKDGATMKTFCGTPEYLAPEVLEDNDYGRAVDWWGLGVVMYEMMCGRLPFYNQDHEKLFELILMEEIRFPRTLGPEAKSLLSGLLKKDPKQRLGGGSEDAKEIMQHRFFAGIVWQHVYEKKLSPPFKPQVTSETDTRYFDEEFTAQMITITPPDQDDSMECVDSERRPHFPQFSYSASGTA

PC-3 [6] = assay: Induction of apoptosis human PC3 cells assessed as externalization of phosphatidylserine on the outer layer of plasma membrane at 1 uM after 24 to 48 hrs using Annexin-V-FITC staining by flow cytometry; format: functional, cell-based
PC-3 [7] = assay: Cell cycle arrest in human PC3 cells assessed as accumulation at G1 phase at 2 uM after 24 hrs using propidium iodide staining by flow cytometry (reference value: 46.97 %); format: functional
PC-3 [8] = assay: Cell cycle arrest in human PC3 cells assessed as accumulation at G2 phase at 2 uM after 24 hrs using propidium iodide staining by flow cytometry (reference value: 18.19 %); format: functional
PC-3 [9] = assay: Cell cycle arrest in human PC3 cells assessed as accumulation at G2 phase at 2 uM after 72 hrs using propidium iodide staining by flow cytometry (reference value: 20.18 %); format: functional
PC-3 [10] = assay: Cell cycle arrest in human PC3 cells assessed as accumulation at S phase at 2 uM after 72 hrs using propidium iodide staining by flow cytometry (reference value: 37.73 %); format: functional
PC-3 [11] = assay: Induction of apoptosis in human PC3 cells at 2 uM after 72 hrs using propidium iodide staining by flow cytometry (reference value: 1.79 %); format: functional
PC-3 [12] = assay: Cell cycle arrest in human PC3 cells assessed as accumulation at S phase at 2 uM after 24 hrs using propidium iodide staining by flow cytometry (reference value: 34.84 %); format: functional
PC-3 [13] = assay: Induction of apoptosis in human PC3 cells at 2 uM after 24 hrs using propidium iodide staining by flow cytometry (reference value: 1.27 %); format: functional
PC-3 [14] = assay: Cell cycle arrest in human PC3 cells assessed as accumulation at G1 phase at 2 uM after 48 hrs using propidium iodide staining by flow cytometry (reference value: 54.14 %); format: functional
PC-3 [15] = assay: Cell cycle arrest in human PC3 cells assessed as accumulation at G2 phase at 2 uM after 48 hrs using propidium iodide staining by flow cytometry (reference value: 13.36 %); format: functional

Compound: CC[C@@]1(O)C(=O)OCc2c1cc1n(c2=O)Cc2cc3c(CN(C)C)c(O)ccc3nc2-1 [TOPOTECAN]
- Activity (PC-3 [1]): 61.76%
- Activity (PC-3 [2]): 16.32%
- Activity (PC-3 [3]): 0%
- inhibition (PC-3 [4]): inactive
- inhibition [5]: Active
- Activity (PC-3 [6]): Active
- Activity (PC-3 [7]): 37.23%
- Activity (PC-3 [8]): 28.86%
- Activity (PC-3 [9]): 36.31%
- Activity (PC-3 [10]): 63.69%
- Activity (PC-3 [11]): 8.14%
- Activity (PC-3 [12]): 33.91%
- Activity (PC-3 [13]): 5.43%
- Activity (PC-3 [14]): 19.17%
- Activity (PC-3 [15]): 19.07%
